For experiment [1], the system named is NRF2 (NQO1 activity as marker for NRF2 activation), BEAS-2B cells. Description: BEAS-2B NQO1 MTT Assay. It counts as cell-based. The conditions noted are these: EC50 of NQO1 specific activity induction, 48 hours incubation, read-out: EC50. The procedure, abridged: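 As a marker of NRF2 activation, NQO1 specific activity was read from the rate of absorbance change at 570 nm in MTT cocktail over 30 minutes. Lysates came from BEAS-2B cells treated for 48 hours at 37° C, and EC50 was derived by 3-parameter fitting.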

The test system of experiment [2] is rats. As to conditions: rats on a choline-deficient L-amino acid-defined diet; cited from earlier work.
Experiment [3] relates to COPD macrophages and alveolar macrophages from cigarette smoke-exposed mice. The conditions noted are these: cited from earlier work.
Experiment [4] relates to rats. The conditions noted are these: cerebral ischemia-reperfusion model; cited from earlier work.
The test system of a further experiment is mice. As to conditions: NRF2 wild-type vs KO mice after administration; cited from earlier work.

Like-named read-outs stand apart in the source and are kept apart here.

Regarding `CC[C@@H]1CN(Cc2cc([C@@H](c3ccc4c(nnn4CC)c3C)C(C)(C)C(=O)NCCC(=O)O)ccc2C)S(=O)(=O)c2ccccc2O1` [Example 201, 3-((S)-3-(3-(((R)-4-ethyl-1,1-dioxido-3,4-dihydro-2H-benzo[b][1,4,5]oxathiazepin-2-yl)methyl)-4-methylphenyl)-3-(1-ethyl-4-methyl-1H-benzo[d][1,2,3]triazol-5-yl)-2,2-dimethylpropanamido)propanoic acid], the half-maximal effective concentration (EC50) in experiment [1] (Homo sapiens) fell in the range of 100 to 1000 nM. Still for that read-out and setting: the value for `CC[C@@H]1CN(Cc2cc([C@@H](c3ccc4c(nnn4CC)c3C)C(C)(C)C(=O)NC(CC(=O)O)C(=O)O)ccc2C)S(=O)(=O)c2ccccc2O1` (stereo partly drawn) [Example 202, 2-((S)-3-(3-(((R)-4-ethyl-1,1-dioxido-3,4-dihydro-2H-benzo[b][1,4,5]oxathiazepin-2-yl)methyl)-4-methylphenyl)-3-(1-ethyl-4-methyl-1H-benzo[d][1,2,3]triazol-5-yl)-2,2-dimethylpropanamido)succinic acid] was 1 to 10 nM; that for `CC[C@@H]1CN(Cc2cc([C@@H](c3ccc4c(nnn4CC)c3C)C(C)(C)C(=O)NC(CC(=O)O)CC(=O)O)ccc2C)S(=O)(=O)c2ccccc2O1` [Example 203, 3-((S)-3-(3-(((R)-4-ethyl-1,1-dioxido-3,4-dihydro-2H-benzo[b][1,4,5]oxathiazepin-2-yl)methyl)-4-methylphenyl)-3-(1-ethyl-4-methyl-1H-benzo[d][1,2,3]triazol-5-yl)-2,2-dimethylpropanamido)pentanedioic acid] was 1000 to 10000 nM. The same measure, in the same setting: the result for `CC[C@@H]1CN(Cc2cc([C@@H](c3ccc4c(nnn4CC)c3C)C(C)(C)C(=O)NC(CC(=O)O)c3ccncc3)ccc2C)S(=O)(=O)c2ccccc2O1` (stereo partly drawn) [Example 204, 3-((S)-3-(3-(((R)-4-ethyl-1,1-dioxido-3,4-dihydro-2H-benzo[b][1,4,5]oxathiazepin-2-yl)methyl)-4-methylphenyl)-3-(1-ethyl-4-methyl-1H-benzo[d][1,2,3]triazol-5-yl)-2,2-dimethylpropanamido)-3-(pyridin-4-yl)propanoic acid] reads 100 to 1000 nM; that for `CC[C@@H]1CN(Cc2cc([C@@H](c3ccc4c(nnn4CC)c3C)C(C)(C)C(=O)NC(C)C(=O)O)ccc2C)S(=O)(=O)c2ccccc2O1` (stereo partly drawn) [Example 205, 2-((S)-3-(3-(((R)-4-ethyl-1,1-dioxido-3,4-dihydro-2H-benzo[b][1,4,5]oxathiazepin-2-yl)methyl)-4-methylphenyl)-3-(1-ethyl-4-methyl-1H-benzo[d][1,2,3]triazol-5-yl)-2,2-dimethylpropanamido)propanoic acid], 100 to 1000 nM; that for `CC[C@@H]1CN(Cc2cc([C@@H](c3ccc4c(nnn4CC)c3C)C(C)(C)C(=O)NCCC(F)(F)F)ccc2C)S(=O)(=O)c2ccccc2O1` [Example 206, (S)-3-(3-(((R)-4-ethyl-1,1-dioxido-3,4-dihydro-2H-benzo[b][1,4,5]oxathiazepin-2-yl)methyl)-4-methylphenyl)-3-(1-ethyl-4-methyl-1H-benzo[d][1,2,3]triazol-5-yl)-2,2-dimethyl-N-(3,3,3-trifluoropropyl)propanamide], 10 to 100 nM.

Consider `CC[C@@H]1CN(Cc2cc([C@@H](c3ccc4c(nnn4CC)c3C)C(C)(C)C(=O)NC(C)(C)C(=O)O)ccc2C)S(=O)(=O)c2ccccc2O1` [Example 207, 2-((S)-3-(3-(((R)-4-ethyl-1,1-dioxido-3,4-dihydro-2H-benzo[b][1,4,5]oxathiazepin-2-yl)methyl)-4-methylphenyl)-3-(1-ethyl-4-methyl-1H-benzo[d][1,2,3]triazol-5-yl)-2,2-dimethylpropanamido)-2-methylpropanoic acid], for which the EC50 in experiment [1] (Homo sapiens) fell in the range of 100 to 1000 nM. Still for that read-out and setting: the value for `CC[C@@H]1CN(Cc2cc([C@@H](c3ccc4c(nnn4CC)c3C)C(C)(C)C(=O)NCC(N)=O)ccc2C)S(=O)(=O)c2ccccc2O1` [Example 208, (S)-N-(2-amino-2-oxoethyl)-3-(3-(((R)-4-ethyl-1,1-dioxido-3,4-dihydro-2H-benzo[b][1,4,5]oxathiazepin-2-yl)methyl)-4-methylphenyl)-3-(1-ethyl-4-methyl-1H-benzo[d][1,2,3]triazol-5-yl)-2,2-dimethylpropanamide] was 10 to 100 nM. The same measure, in the same setting: the value for `CC[C@@H]1CN(Cc2cc([C@@H](c3ccc4c(nnn4CC)c3C)C(C)(C)C(=O)N[C@@H](CCC(=O)O)C(=O)O)ccc2C)S(=O)(=O)c2ccccc2O1` [Example 209, (S)-2-((S)-3-(3-(((R)-4-ethyl-1,1-dioxido-3,4-dihydro-2H-benzo[b][1,4,5]oxathiazepin-2-yl)methyl)-4-methylphenyl)-3-(1-ethyl-4-methyl-1H-benzo[d][1,2,3]triazol-5-yl)-2,2-dimethylpropanamido)pentanedioic acid] was 1000 to 10000 nM; that for `CC[C@@H]1CN(Cc2cc([C@@H](c3ccc4c(nnn4CC)c3C)C(C)(C)C(=O)N[C@H](CCC(=O)O)C(=O)O)ccc2C)S(=O)(=O)c2ccccc2O1` [Example 210, (R)-2-((S)-3-(3-(((R)-4-ethyl-1,1-dioxido-3,4-dihydro-2H-benzo[b][1,4,5]oxathiazepin-2-yl)methyl)-4-methylphenyl)-3-(1-ethyl-4-methyl-1H-benzo[d][1,2,3]triazol-5-yl)-2,2-dimethylpropanamido)pentanedioic acid] was 100 to 1000 nM; that for `CC[C@@H]1CN(Cc2cc([C@@H](c3ccc4c(nnn4CC)c3C)C(C)(C)C(=O)N[C@@H](CC(N)=O)C(=O)O)ccc2C)S(=O)(=O)c2ccccc2O1` [Example 211, (S)-4-amino-2-((S)-3-(3-(((R)-4-ethyl-1,1-dioxido-3,4-dihydro-2H-benzo[b][1,4,5]oxathiazepin-2-yl)methyl)-4-methylphenyl)-3-(1-ethyl-4-methyl-1H-benzo[d][1,2,3]triazol-5-yl)-2,2-dimethylpropanamido)-4-oxobutanoic acid] was 1000 to 10000 nM. For the compound `CC[C@@H]1CN(Cc2cc([C@@H](c3ccc4c(nnn4CC)c3C)C(C)(C)C(=O)N[C@H](CC(N)=O)C(=O)O)ccc2C)S(=O)(=O)c2ccccc2O1` [Example 212, (R)-4-amino-2-((S)-3-(3-(((R)-4-ethyl-1,1-dioxido-3,4-dihydro-2H-benzo[b][1,4,5]oxathiazepin-2-yl)methyl)-4-methylphenyl)-3-(1-ethyl-4-methyl-1H-benzo[d][1,2,3]triazol-5-yl)-2,2-dimethylpropanamido)-4-oxobutanoic acid], the concentration for a half-maximal effect (EC50) in experiment [1] (Homo sapiens) lay in the range of 100 to 1000 nM. On the same count and under the same terms, the value for `CC[C@@H]1CN(Cc2cc([C@@H](c3ccc4c(nnn4CC)c3C)C(C)(C)C(=O)N(CCC(=O)O)CC(=O)O)ccc2C)S(=O)(=O)c2ccccc2O1` [Example 213, 3-((S)-N-(carboxymethyl)-3-(3-(((R)-4-ethyl-1,1-dioxido-3,4-dihydro-2H-benzo[b][1,4,5]oxathiazepin-2-yl)methyl)-4-methylphenyl)-3-(1-ethyl-4-methyl-1H-benzo[d][1,2,3]triazol-5-yl)-2,2-dimethylpropanamido)propanoic acid] was 10 to 100 nM. Regarding `O=C(NCc1ccccn1)Nc1nnc(-c2ccco2)o1` [NK-252], in the experiment on rats [2], the “progression of histologic abnormalities, especially hepatic fibrosis” value was “significantly attenuated”. With `C[S+]([O-])CCCCN=C=S` (centres unmarked) [Sulforaphane], the “expression of Macrophage Receptor with Collagenous structure (MARCO)” value in experiment [3] (COPD macrophages and alveolar macrophages from cigarette smoke-exposed mice) is given as “increases”. For the same compound, the “bacterial phagocytosis and bacterial clearance” value in experiment [3] (Pseudomonas aeruginosa, non-typable Haemophilus influenzae, ex vivo and in vivo) is given as “improving”. Turning to `Cc1c(-c2cnccn2)ssc1=S` [oltipraz], in the experiment on rats [2], the “progression of histologic abnormalities, especially hepatic fibrosis” value is on record as “significantly attenuated”. Take `CC(C)(C)c1cc(O)ccc1O` [tBHQ, tert-butylhydroquinone]: the cortical damage result in the experiment on rats [4] is on record as “reduced cortical damage”. Moreover, the cortical glutathione levels entry with mice was “increased in NRF2 wild-type but not KO mice”. For “(S)-3-(1,4-Dimethyl-1H-benzo[d][1,2,3]triazol-5-yl)-3-(3-(((R)-2-ethyl-2,3-dihydropyrido[3,44][1,4]oxazepin-4(5H)-yl)methyl)-4-methylphenyl)-2,2-dimethyl-N-(pyridin-3-yl)propanamide [Example 111]”, the EC50 in experiment [1] fell in the range of 100 to 1000 nM.

Values taken from patent publication US11078216B2, “Bisaryl amides as NRF2 activators” (GLAXOSMITHKLINE INTELLECTUAL PROPERTY DEVELOPMENT LIMITED, priority 2016, dated 2021).
